For one data set, the system named is E. coli strain BL21. Particulars: BL21, 24 h.
In another data set the test system is E. coli BL21. As to conditions: BL21, 24 h.
Data set [1] relates to tomato and tobacco leaves. Kind of data set: Leaf infiltration toxicity on tomato and tobacco leaves.
A further data set can be described thus: in vitro. As to conditions: human, HEK cells (HEK294 [sic]).

Molecules are shown by their SMILES. Where a SMILES comes first, the peptide text is derived from it.

In general, MIC refers to the least concentration at which growth counts as inhibited. The IC50 is the concentration needed to halve the response being measured. Lower therefore signals higher potency. In the data set with E. coli strain BL21, `CC[C@H](C)[C@H](NC(=O)[C@H](CCCCN)NC(=O)[C@H](CC(C)C)NC(=O)[C@@H](NC(=O)[C@H](CCC(=O)O)NC(=O)[C@H](CCCCN)NC(=O)[C@@H]1CCCN1C(=O)[C@H](CC(C)C)NC(=O)[C@H](CCCCN)NC(=O)[C@@H](N)CCCCN)[C@@H](C)CC)C(=O)N[C@@H](CC(C)C)C(=O)NCC(=O)N[C@@H](CO)C(=O)NCC(=O)N[C@@H](Cc1ccc(O)cc1)C(=O)NCC(=O)N[C@@H](CO)C(=O)N[C@@H](CC(C)C)C(=O)N1CCC[C@H]1C(=O)N[C@@H](CCCCN)C(=O)N[C@@H](CCC(=O)O)C(=O)N[C@H](C(=O)N[C@@H](CC(C)C)C(=O)N[C@@H](CCCCN)C(=O)N[C@H](C(=O)N[C@@H](CC(C)C)C(=O)N[C@@H](CCC(=O)O)C(=O)N[C@@H](CC(C)C)C(=O)N[C@@H](CCCCN)C(=O)N[C@@H](CCCCN)C(=O)O)[C@@H](C)CC)[C@@H](C)CC` [Gen-1] (H-KKLPKEILKILGSGYGSLPKEILKILELKK-OH; N-terminus and C-terminus assumed) showed an MIC of 5 to 10 mM. Further, in the data set on E. coli BL21, the IC50 was found to be 10.22 ± 0.07 µM. For `CC[C@H](C)[C@H](NC(=O)[C@H](CCCCN)NC(=O)[C@H](CC(C)C)NC(=O)[C@@H](NC(=O)[C@H](CCCCN)NC(=O)[C@H](CCCCN)NC(=O)[C@@H](NC(=O)[C@H](CC(C)C)NC(=O)[C@H](CCCCN)NC(=O)[C@@H](N)CCCCN)[C@@H](C)CC)[C@@H](C)CC)C(=O)N[C@@H](CC(C)C)C(=O)O` [Peptide 11P-1, reference compound] (H-KKLIKKILKIL-OH; N-terminus and C-terminus assumed), in that order: 10 to 20 mM and 12.9 ± 0.62 µM. `CC[C@H](C)[C@H](NC(=O)[C@H](CCC(=O)O)NC(=O)[C@H](CC(C)C)NC(=O)[C@@H](NC(=O)[C@H](CCCCN)NC(=O)[C@H](CCC(=O)O)NC(=O)[C@@H]1CCCN1C(=O)[C@H](CC(C)C)NC(=O)[C@H](CCCCN)NC(=O)[C@@H](N)CCCCN)[C@@H](C)CC)C(=O)N[C@@H](CC(C)C)C(=O)NCC(=O)N[C@@H](CO)C(=O)NCC(=O)N[C@@H](Cc1ccc(O)cc1)C(=O)N[C@@H](CCCCN)C(=O)N[C@@H](CCCCN)C(=O)N[C@@H](CC(C)C)C(=O)N1CCC[C@H]1C(=O)N[C@@H](Cc1ccccc1)C(=O)N[C@@H](Cc1c[nH]c2ccccc12)C(=O)N[C@@H](CCC(N)=O)C(=O)N[C@@H](CCCNC(=N)N)C(=O)N[C@@H](CCCNC(=N)N)C(=O)N[C@H](C(=O)N[C@@H](CCCNC(=N)N)C(=O)N[C@@H](CCCNC(=N)N)C(=O)N[C@@H](Cc1c[nH]c2ccccc12)C(=O)N[C@@H](CCCNC(=N)N)C(=O)N[C@@H](CCCNC(=N)N)C(=O)O)[C@@H](C)CC` [Gen-2] (H-KKLPEKILEILGSGYKKLPFWQRRIRRWRR-OH; N-terminus and C-terminus assumed) showed an MIC with E. coli strain BL21 of 2.5 to 5 mM. In the data set with E. coli BL21, this compound showed an IC50 of 2.83 ± 0.14 µM.

In the case of `CC[C@H](C)[C@H](NC(=O)[C@H](CCCNC(=N)N)NC(=O)[C@H](CCCNC(=N)N)NC(=O)[C@H](CCC(N)=O)NC(=O)[C@H](Cc1c[nH]c2ccccc12)NC(=O)[C@H](Cc1ccccc1)NC(=O)CNC(=O)[C@@H]1CCCN1C(=O)[C@H](CO)NC(=O)CNC(=O)[C@H](CCCCN)NC(=O)[C@H](CC(C)C)NC(=O)[C@H](CO)NC(=O)[C@H](CCC(=O)O)NC(=O)[C@H](CC(C)C)NC(=O)[C@@H](NC(=O)[C@H](CCCCN)NC(=O)[C@H](CC(C)C)NC(=O)[C@@H](NC(=O)[C@H](CCCCN)NC(=O)[C@H](CCC(=O)O)NC(=O)[C@@H]1CCCN1C(=O)[C@H](CC(C)C)NC(=O)[C@H](CCCCN)NC(=O)[C@@H](N)CCCCN)[C@@H](C)CC)[C@@H](C)CC)C(=O)N[C@@H](CCCNC(=N)N)C(=O)N[C@@H](CCCNC(=N)N)C(=O)N[C@@H](Cc1c[nH]c2ccccc12)C(=O)N[C@@H](CCCNC(=N)N)C(=O)N[C@@H](CCCNC(=N)N)C(=O)O` [UGK-17] (H-KKLPEKILKILESLKGSPGFWQRRIRRWRR-OH), in data set [1] (15-25 μM, even after 96 hours of leaf infiltration), the “toxicity to tomato and tobacco” value is “not toxic”. Also, the “corrosion of infiltrated tomato and tobacco leaves” value in data set [1] (24, 48, 72, and 96 hours of infiltration (FIGS. 8A-H)) is listed as “no corrosion beyond the infiltrated spots”. For the same compound, half-maximal inhibition with E. coli BL21 (IC50) was put at 1.36 ± 0.04 µM. In addition, the cytotoxicity at 72 h, 20 µM in the data set “in vitro” was < 20%. In the case of `CC[C@H](C)[C@H](NC(=O)[C@H](CCCNC(=N)N)NC(=O)[C@H](CCCNC(=N)N)NC(=O)[C@H](CCC(N)=O)NC(=O)[C@H](Cc1c[nH]c2ccccc12)NC(=O)[C@@H](N)Cc1ccccc1)C(=O)N[C@@H](CCCNC(=N)N)C(=O)N[C@@H](CCCNC(=N)N)C(=O)N[C@@H](Cc1c[nH]c2ccccc12)C(=O)N[C@@H](CCCNC(=N)N)C(=O)N[C@@H](CCCNC(=N)N)C(=O)O` [Peptide 11P-3, reference compound] (H-FWQRRIRRWRR-OH; N-terminus and C-terminus assumed), in the data set on E. coli strain BL21, the MIC is listed as >20 mM. This compound returned an IC50 in the data set on E. coli BL21 of 49 ± 2.79 µM. Compound `CC[C@H](C)[C@H](NC(=O)[C@H](CCCNC(=N)N)NC(=O)[C@H](CCCNC(=N)N)NC(=O)[C@H](CCC(N)=O)NC(=O)[C@H](Cc1c[nH]c2ccccc12)NC(=O)[C@H](Cc1ccccc1)NC(=O)CNC(=O)[C@@H]1CCCN1C(=O)[C@H](CO)NC(=O)CNC(=O)[C@H](Cc1ccc(O)cc1)NC(=O)[C@@H](NC(=O)[C@H](CO)NC(=O)CNC(=O)[C@H](Cc1ccc(O)cc1)NC(=O)[C@H](CO)NC(=O)CNC(=O)[C@H](CCCNC(=N)N)NC(=O)[C@H](Cc1c[nH]c2ccccc12)NC(=O)[C@H](Cc1c[nH]c2ccccc12)NC(=O)[C@H](CCCNC(=N)N)NC(=O)[C@H](Cc1c[nH]c2ccccc12)NC(=O)[C@H](Cc1c[nH]c2ccccc12)NC(=O)[C@H](CCCNC(=N)N)NC(=O)[C@@H](N)CCCNC(=N)N)C(C)C)C(=O)N[C@@H](CCCNC(=N)N)C(=O)N[C@@H](CCCNC(=N)N)C(=O)N[C@@H](Cc1c[nH]c2ccccc12)C(=O)N[C@@H](CCCNC(=N)N)C(=O)N[C@@H](CCCNC(=N)N)C(=O)O` [UGI-7] (H-RRWWRWWRGSYGSVYGSPGFWQRRIRRWRR-OH; N-terminus and C-terminus assumed) showed an MIC in the data set with E. coli strain BL21 of 5 to 10 mM.

Take `CSCC[C@H](NC(=O)[C@H](Cc1c[nH]c2ccccc12)NC(=O)[C@H](CCC(=O)O)NC(=O)[C@H](Cc1c[nH]c2ccccc12)NC(=O)[C@H](Cc1c[nH]c2ccccc12)NC(=O)[C@H](CCCNC(=N)N)NC(=O)[C@H](CCCNC(=N)N)NC(=O)[C@H](CCC(=O)O)NC(=O)[C@H](CC(C)C)NC(=O)[C@@H]1CCCN1C(=O)[C@H](CO)NC(=O)[C@H](CC(=O)O)NC(=O)[C@H](CC(C)C)NC(=O)[C@H](CC(C)C)NC(=O)[C@H](CCCNC(=N)N)NC(=O)[C@H](CCCNC(=N)N)NC(=O)[C@@H](NC(=O)[C@H](CC(C)C)NC(=O)[C@H](CCC(=O)O)NC(=O)[C@H](CCC(N)=O)NC(=O)[C@H](CC(C)C)NC(=O)[C@H](CCC(N)=O)NC(=O)[C@H](CCC(=O)O)NC(=O)[C@H](CO)NC(=O)CNC(=O)[C@H](CCCNC(=N)N)NC(=O)[C@@H]1CCCN1C(=O)[C@@H](N)CCCCN)[C@@H](C)O)C(=O)N[C@@H](CCCNC(=N)N)C(=O)N[C@@H](CCCNC(=N)N)C(=O)O` [UGK-29] (H-KPRGSEQLQELTRRLLDSPLERRWWEWMRR-OH; N-terminus and C-terminus assumed): the MIC against E. coli strain BL21 is >20 mM. `CC[C@H](C)[C@H](N)C(=O)N[C@@H](CCC(=O)O)C(=O)N[C@@H](CCCNC(=N)N)C(=O)N[C@@H](CO)C(=O)N[C@@H](CCCNC(=N)N)C(=O)N[C@@H](CC(N)=O)C(=O)N[C@@H](CC(C)C)C(=O)N[C@@H](CC(=O)O)C(=O)N[C@@H](Cc1c[nH]c2ccccc12)C(=O)N[C@@H](Cc1ccc(O)cc1)C(=O)N[C@@H](CCCCN)C(=O)NCC(=O)N1CCC[C@H]1C(=O)N[C@H](C(=O)N[C@@H](CC(C)C)C(=O)N[C@@H](CC(C)C)C(=O)N[C@@H](CC(=O)O)C(=O)N[C@@H](C)C(=O)N[C@@H](CC(C)C)C(=O)N[C@@H](CCCCN)C(=O)N[C@@H](CC(N)=O)C(=O)N[C@@H](CC(C)C)C(=O)N[C@@H](CC(N)=O)C(=O)N[C@@H](CCC(=O)O)C(=O)NCC(=O)N[C@@H](CCCCN)C(=O)N[C@@H](CCCNC(=N)N)C(=O)O)[C@@H](C)O` [Peptide I27AB] (H-IERSRNLDWYKGPTLLDALKNLNEGKR-OH; N-terminus and C-terminus assumed): the MIC against E. coli strain BL21 is recorded as >20 mM.

Values taken from patent US20250243245A1 (priority 2022, published 2025).
